Assay results as given in patent US10294202B2, “Pyrrolidinones as herbicides” (FMC Corporation, priority 2013, dated 2019).

Tests used:
wheat = experiment: Test A pre-/postemergence herbicide test; type: in vivo, Triticum aestivum; details: Postemergence
Summary of the method: (§1)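 Approximately 10 days after treatment in the greenhouse, plants were compared with untreated controls and given a 0–100 visual injury rating. Applications: preemergence directed soil spray; postemergence on 2–10 cm plants at the one- to two-leaf stage.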

morningglory = experiment: Test C pre-/postemergence herbicide test; type: in vivo, Ipomoea coccinea
Summary of the method: (§2)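 Plants grown and held in a greenhouse for 13 to 15 days post-spray, then rated 0–100 by visual comparison with controls. Pre treatments targeted seeds in loam and sand; post treatments targeted 1- to 4-leaf plants in peat-based potting medium.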

oilseed rape = experiment: Test C pre-/postemergence herbicide test; type: in vivo, Brassica napus
Summary of the method: as §2

oat, wild = experiment: Test C pre-/postemergence herbicide test; type: in vivo, Avena fatua; details: Postemergence
Summary of the method: as §2

corn = experiment: Test A pre-/postemergence herbicide test; type: in vivo, Zea mays; details: Postemergence
Summary of the method: as §1

pigweed = experiment: Test A pre-/postemergence herbicide test; type: in vivo, Amaranthus retroflexus
Summary of the method: as §1

waterhemp = experiment: Test C pre-/postemergence herbicide test; type: in vivo, Amaranthus rudis
Summary of the method: as §2

barnyardgrass = experiment: Test B flooded paddy test; type: in vivo, Echinochloa crus-galli; details: Flood, scale of 0 to 100 where 0 is no effect and 100 is complete control
Summary of the method: (§3)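 Plants were grown to the 2-leaf stage, then pots were flooded to 3 cm above the soil and compound was applied directly into the paddy water, with that depth held throughout. After 13 to 15 days in a greenhouse, injury was rated visually against untreated controls on a 0 to 100 scale (100 = complete control).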

sedge, umbrella = experiment: Test B flooded paddy test; type: in vivo, Cyperus difformis; details: Flood, scale of 0 to 100 where 0 is no effect and 100 is complete control
Summary of the method: as §3

wheat (winter wheat) = experiment: Test C pre-/postemergence herbicide test; type: in vivo, Triticum aestivum
Summary of the method: as §2

ragweed = experiment: Test C pre-/postemergence herbicide test; type: in vivo, Ambrosia elatior
Summary of the method: as §2

rice = experiment: Test B flooded paddy test; type: in vivo, Oryza sativa; details: Flood, scale of 0 to 100 where 0 is no effect and 100 is complete control
Summary of the method: as §3

[1] = 125 g ai/ha, visual rating on 0 to 100 scale (0 no effect, 100 complete control), approx. 10 days
[2] = 500 g ai/ha, 0 to 100 scale (0 no effect, 100 complete control)
[3] = Postemergence, 31 g ai/ha, scale 0 to 100 (0 no effect, 100 complete control)
[4] = Postemergence, 62 g ai/ha, scale 0 (no effect) to 100 (complete control)
[5] = Postemergence, 125 g ai/ha, scale 0 to 100 (0 no effect, 100 complete control)
[6] = Postemergence, 250 g ai/ha, scale 0 to 100 (0 no effect, 100 complete control)
[7] = Preemergence, 31 g ai/ha, scale 0 to 100, 0 is no effect and 100 is complete control
[8] = Preemergence, 62 g ai/ha, scale 0 to 100 (0 no effect, 100 complete control)
[9] = Preemergence, 125 g ai/ha, scale 0 to 100
[10] = 31 g ai/ha, scale 0 to 100 (0 no effect, 100 complete control)
[11] = 62 g ai/ha, scale 0 (no effect) to 100 (complete control)
[12] = 125 g ai/ha, scale 0 to 100 (0 no effect, 100 complete control)
[13] = 250 g ai/ha, scale 0 to 100 (0 no effect, 100 complete control)
[14] = Postemergence, 125 g ai/ha, visual rating on 0 to 100 scale (0 no effect, 100 complete control), approx. 10 days
[15] = Preemergence, 125 g ai/ha, 0 to 100 scale where 0 is no effect and 100 is complete control
[16] = Preemergence, 500 g ai/ha, visual rating on 0 to 100 scale (0 no effect, 100 complete control)
[17] = Preemergence, 31 g ai/ha, scale 0 to 100

In the case of O=C1NCC(c2cccc(OC(F)F)c2)C1C(=O)Nc1ccccc1F (stereo not drawn) [Compound 323], the “Plant response rating, Wheat” value (wheat; [1]) is reported as 40, the “Plant response rating, Wheat” value (wheat; [2]) is reported as 80 and the “Plant response rating, Morningglory” value (morningglory; [3]) is reported as 0. For the same compound, the “Plant response rating, Morningglory” value (morningglory; [4]) was 25, the “Plant response rating, Morningglory” value (morningglory; [5]) was 5 and the “Plant response rating, Morningglory” value (morningglory; [6]) was 25. For the same compound, the “Morningglory plant response rating” value (morningglory; [7]) was 0, the “Morningglory plant response rating” value (morningglory; [8]) was 0 and the “Plant response rating, Morningglory” value (morningglory; [9]) was 0. For the same compound, the “Plant response rating (scale of 0 to 100), Morningglory” value (morningglory; Preemergence, 250 g ai/ha) was 30, the “Plant response rating, Oilseed Rape” value (oilseed rape; [3]) was 0 and the “Plant response rating, Oilseed Rape” value (oilseed rape; [4]) was 0. For the same compound, the “Plant response rating, Oilseed Rape” value (oilseed rape; [5]) was 0, the “Plant response rating, Oilseed Rape” value (oilseed rape; [6]) was 0 and the “Oilseed Rape plant response rating” value (oilseed rape; [7]) was 0. For the same compound, the “Oilseed Rape plant response rating” value (oilseed rape; [8]) was 10, the “Plant response rating, Oilseed Rape” value (oilseed rape; [9]) was 70 and the “Plant response rating (scale of 0 to 100), Oilseed Rape” value (oilseed rape; Preemergence, 250 g ai/ha) was 85. The “Plant response rating, Oat, Wild” value (oat, wild; [10]) was 0, the “Plant response rating, Oat, Wild” value (oat, wild; [11]) was 0 and the “Plant response rating, Oat, Wild” value (oat, wild; [12]) was 0. The “Plant response rating, Oat, Wild” value (oat, wild; [13]) was 0, the “Plant response rating, Corn” value (corn; [1]) was 70 and the “Plant response rating, Corn” value (corn; [2]) was 90. For the same compound, the “Plant response rating, Pigweed” value (pigweed; [14]) was 20, the “Plant response rating, Pigweed” value (pigweed; Postemergence, 500 g ai/ha, 0 to 100 scale (0 no effect, 100 complete control)) was 30 and the “Plant response rating, Pigweed” value (pigweed; [15]) was 20. For the same compound, the “Pigweed plant response rating” value (pigweed; [16]) was 30, the “Plant response rating, Waterhemp” value (waterhemp; [3]) was 0 and the “Plant response rating, Waterhemp” value (waterhemp; [4]) was 0. For the same compound, the “Plant response rating, Waterhemp” value (waterhemp; [5]) was 0, the “Plant response rating, Waterhemp” value (waterhemp; [6]) was 20 and the “Waterhemp plant response rating” value (waterhemp; [8]) was 50. The “Plant response rating, Waterhemp” value (waterhemp; [9]) was 60, the “Plant response rating, Barnyardgrass” value (barnyardgrass; 500 g ai/ha) was 80 and the “Plant response rating, Sedge, Umbrella” value (sedge, umbrella; 500 g ai/ha) was 0. For the same compound, the “Plant response rating, Wheat” value (wheat (winter wheat); [3]) was 0, the “Plant response rating, Wheat” value (wheat (winter wheat); [4]) was 0 and the “Plant response rating, Wheat” value (wheat (winter wheat); [5]) was 0. For the same compound, the “Plant response rating, Wheat” value (wheat (winter wheat); [6]) was 0, the “Wheat plant response rating” value (wheat (winter wheat); [8]) was 30 and the “Plant response rating, Wheat” value (wheat (winter wheat); [9]) was 40. The “Plant response rating, Ragweed” value (ragweed; [3]) was 0, the “Plant response rating, Ragweed” value (ragweed; [4]) was 0 and the “Plant response rating, Ragweed” value (ragweed; [5]) was 15. For the same compound, the “Plant response rating, Ragweed” value (ragweed; [6]) was 20, the “Ragweed plant response rating” value (ragweed; [8]) was 10 and the “Plant response rating, Ragweed” value (ragweed; [9]) was 40. For the same compound, the “Plant response rating, Rice” value (rice; 500 g ai/ha) was 20.
O=C1NCC(c2ccc(F)c(F)c2)C1C(=O)Nc1ccc(F)c(F)c1F (stereo not drawn) [Compound 346] was tested, and the “Plant response rating, Wheat” value (wheat; [1]) was 0, the “Plant response rating, Morningglory” value (morningglory; [3]) was 0 and the “Plant response rating, Morningglory” value (morningglory; [4]) was 5. For the same compound, the “Plant response rating, Morningglory” value (morningglory; [5]) was 15, the “Plant response rating, Morningglory” value (morningglory; [6]) was 5 and the “Morningglory plant response rating” value (morningglory; [8]) was 0. For the same compound, the “Plant response rating, Morningglory” value (morningglory; [9]) was 30, the “Plant response rating (scale of 0 to 100), Morningglory” value (morningglory; Preemergence, 250 g ai/ha) was 0 and the “Plant response rating, Morningglory” value (morningglory; [17]) was 0. For the same compound, the “Plant response rating, Oilseed Rape” value (oilseed rape; [3]) was 0, the “Plant response rating, Oilseed Rape” value (oilseed rape; [4]) was 0 and the “Plant response rating, Oilseed Rape” value (oilseed rape; [5]) was 0. The “Plant response rating, Oilseed Rape” value (oilseed rape; [6]) was 0, the “Oilseed Rape plant response rating” value (oilseed rape; [8]) was 0 and the “Plant response rating, Oilseed Rape” value (oilseed rape; [9]) was 50. For the same compound, the “Plant response rating (scale of 0 to 100), Oilseed Rape” value (oilseed rape; Preemergence, 250 g ai/ha) was 60, the “Plant response rating, Oilseed Rape” value (oilseed rape; [17]) was 0 and the “Plant response rating, Oat, Wild” value (oat, wild; [10]) was 0. The “Plant response rating, Oat, Wild” value (oat, wild; [11]) was 0, the “Plant response rating, Oat, Wild” value (oat, wild; [12]) was 0 and the “Plant response rating, Oat, Wild” value (oat, wild; [13]) was 0. The “Plant response rating, Corn” value (corn; [1]) was 20, the “Plant response rating, Corn” value (corn; [2]) was 40 and the “Plant response rating, Pigweed” value (pigweed; [14]) was 0. For the same compound, the “Plant response rating, Pigweed” value (pigweed; [15]) was 20, the “Pigweed plant response rating” value (pigweed; [16]) was 30 and the “Plant response rating, Waterhemp” value (waterhemp; [3]) was 0. For the same compound, the “Plant response rating, Waterhemp” value (waterhemp; [4]) was 0, the “Plant response rating, Waterhemp” value (waterhemp; [5]) was 15 and the “Plant response rating, Waterhemp” value (waterhemp; [6]) was 40. The “Waterhemp plant response rating” value (waterhemp; [8]) was 25, the “Plant response rating, Waterhemp” value (waterhemp; [9]) was 10 and the “Plant response rating, Waterhemp” value (waterhemp; [17]) was 75. The “Plant response rating, Barnyardgrass” value (barnyardgrass; 1000 g ai/ha) was 85, the “Plant response rating, Sedge, Umbrella” value (sedge, umbrella; 1000 g ai/ha) was 0 and the “Plant response rating, Wheat” value (wheat (winter wheat); [3]) was 0. For the same compound, the “Plant response rating, Wheat” value (wheat (winter wheat); [4]) was 0, the “Plant response rating, Wheat” value (wheat (winter wheat); [5]) was 0 and the “Plant response rating, Wheat” value (wheat (winter wheat); [6]) was 0. The “Wheat plant response rating” value (wheat (winter wheat); [8]) was 0, the “Plant response rating, Wheat” value (wheat (winter wheat); [9]) was 0 and the “Plant response rating, Wheat” value (wheat (winter wheat); [17]) was 0. The “Plant response rating, Ragweed” value (ragweed; [3]) was 0, the “Plant response rating, Ragweed” value (ragweed; [4]) was 0 and the “Plant response rating, Ragweed” value (ragweed; [5]) was 0. For the same compound, the “Plant response rating, Ragweed” value (ragweed; [6]) was 20, the “Ragweed plant response rating” value (ragweed; [8]) was 35 and the “Plant response rating, Ragweed” value (ragweed; [9]) was 35. The “Plant response rating, Ragweed” value (ragweed; [17]) was 50 and the “Plant response rating, Rice” value (rice; 1000 g ai/ha) was 0.
